Measurements taken from patent US20150299188A1, “HETEROCYCLIC COMPOUND” (priority 2012, published 2015).

System: FLAP (5-lipoxygenase activating protein)
Assay: In vitro binding test: displacement of [3H]-7-chloro-3-(5-((3-fluoropyridin-2-yl)methoxy)-2-methylphenyl)-3,4-dihydroquinazolin-2(1H)-one from Sf9 microsome fractions
Design: species or system human and mouse
Conditions: Sf9 microsome fractions expressing FLAP; 100% = radioligand binding with 10 μM sodium 3-(3-(tert-butylsulfanyl)-1-(4-chlorobenzyl)-5-isopropyl-1H-indol-2-yl)-2,2-dimethylpropanoate, 0% = DMSO; test compound concentration not given
Method in brief: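 Sf9 microsomes expressing human or mouse FLAP (2 μg/mL) preincubated with compound 10 min at room temperature, then 120 nM tritiated quinazolinone ligand added for 60 min; buffer 100 mM Tris-HCl pH 7.5 with NaCl, EDTA, DTT, glycerol, Tween20. Bound ligand filtered and counted by scintillation; 10 μM indole propanoate defines 100% inhibition, DMSO 0%.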

First: Cc1ccc(OCc2ncccc2F)cc1N1Cc2cccnc2NC1=O [Example 256, 3-(5-((3-fluoropyridin-2-yl)methoxy)-2-methylphenyl)-3,4-dihydropyrido[2,3-d]pyrimidin-2(1H)-one]
Second: Cc1ccc(OCc2ncccc2F)cc1N1Cc2ccc(C(F)(F)F)cc2NC1=O [Example 275, 3-(5-((3-fluoropyridin-2-yl)methoxy)-2-methylphenyl)-7-(trifluoromethyl)-3,4-dihydroquinazolin-2(1H)-one]
The “inhibitory rate (%)” value of the first is lower: 85% for the first, 101% for the second.

Going from CN(C)C(=O)c1cc2c(c(C3CC3)n1)CN(c1cc3c(cc1Cl)CCC(c1ncccc1F)O3)C(=O)N2 (stereo not drawn) [Example 150, 3-(6-chloro-2-(3-fluoropyridin-2-yl)-3,4-dihydro-2H-chromen-7-yl)-5-cyclopropyl-N,N-dimethyl-2-oxo-1,2,3,4-tetrahydropyrido[4,3-d]pyrimidine-7-carboxamide] to COCCNC(=O)c1cc2c(c(C3CC3)n1)CN(c1cc3c(cc1Cl)CCC(c1ncccc1F)O3)C(=O)N2 (stereo not drawn) [Example 97, 3-(6-chloro-2-(3-fluoropyridin-2-yl)-3,4-dihydro-2H-chromen-7-yl)-5-cyclopropyl-N-(2-methoxyethyl)-2-oxo-1,2,3,4-tetrahydropyrido[4,3-d]pyrimidine-7-carboxamide], the “inhibitory rate (%)” value falls from 98% to 90%.

Going from Cn1c(=O)n(-c2cccc(OCc3c(F)cccc3F)c2)c(=O)c2ccncc21 [Example 331, 3-(3-((2,6-difluorobenzyl)oxy)phenyl)-1-methylpyrido[3,4-d]pyrimidine-2,4(1H,3H)-dione] to Cc1ccc(OCc2c(F)cccc2F)cc1N1Cc2cc(CO)ccc2NC1=O [Example 186, 3-(5-((2,6-difluorobenzyl)oxy)-2-methylphenyl)-6-(hydroxymethyl)-3,4-dihydroquinazolin-2(1H)-one], the “inhibitory rate (%)” value rises from 51% to 62%.

First: O=C1Nc2cc(-c3ccn[nH]3)nc(C3CC3)c2CN1c1cc2c(cc1Cl)CCC(c1ncccc1F)O2 (stereo not drawn) [Example 115, 3-(6-chloro-2-(3-fluoropyridin-2-yl)-3,4-dihydro-2H-chromen-7-yl)-5-cyclopropyl-7-(1H-pyrazol-5-yl)-3,4-dihydropyrido[4,3-d]pyrimidin-2(1H)-one]
Second: O=C1Nc2cc(OC(F)F)nc(C3CC3)c2CN1c1cc2c(cc1Cl)CCC(c1ncccc1F)O2 (stereo not drawn) [Example 18, 3-(6-chloro-2-(3-fluoropyridin-2-yl)-3,4-dihydro-2H-chromen-7-yl)-5-cyclopropyl-7-(difluoromethoxy)-3,4-dihydropyrido[4,3-d]pyrimidin-2(1H)-one]
The “inhibitory rate (%)” value of the first is higher: 106% for the first, 88% for the second.

Compared with O=C1CCCN1c1cc2c(c(C3CC3)n1)CN(c1cc3c(cc1Cl)CCC(c1ncccc1F)O3)C(=O)N2 (stereo not drawn) [Example 86, 3-(6-chloro-2-(3-fluoropyridin-2-yl)-3,4-dihydro-2H-chromen-7-yl)-5-cyclopropyl-7-(2-oxopyrrolidin-1-yl)-3,4-dihydropyrido[4,3-d]pyrimidin-2(1H)-one], Cc1cc2c(cc1N1Cc3c(cc(-c4c(C)noc4C)nc3C3CC3)NC1=O)OC(c1ncccc1F)CC2 (stereo not drawn) [Example 151, 5-cyclopropyl-7-(3,5-dimethyl-1,2-oxazol-4-yl)-3-(2-(3-fluoropyridin-2-yl)-6-methyl-3,4-dihydro-2H-chromen-7-yl)-3,4-dihydropyrido[4,3-d]pyrimidin-2(1H)-one] is lower in “inhibitory rate (%)” value: 108% for the first, 90% for the second.

Compared with CCOC(=O)CCCCc1ccc(OCc2ncccc2F)cc1N1Cc2ccccc2NC1=O [Example 248, ethyl 5-(4-((3-fluoropyridin-2-yl)methoxy)-2-(2-oxo-1,4-dihydroquinazolin-3(2H)-yl)phenyl)pentanoate], O=C(O)CCc1ccc(OCc2ncccc2F)cc1N1Cc2ccccc2NC1=O [Example 229, 3-(4-((3-fluoropyridin-2-yl)methoxy)-2-(2-oxo-1,4-dihydroquinazolin-3(2H)-yl)phenyl)propanoic acid] is lower in “inhibitory rate (%)” value: 98% for the first, 76% for the second.

Going from COCCOc1ccc2c(=O)n(-c3cc(OCc4ncccc4F)ccc3C)c(=O)n(CCOC)c2c1 [Example 352, 3-(5-((3-fluoropyridin-2-yl)methoxy)-2-methylphenyl)-7-(2-methoxyethoxy)-1-(2-methoxyethyl)quinazoline-2,4(1H,3H)-dione] to COCCOc1cccc2c(=O)n(-c3cc(OCc4ncccc4F)ccc3C)c(=O)[nH]c12 [Example 354, 3-(5-((3-fluoropyridin-2-yl)methoxy)-2-methylphenyl)-8-(2-methoxyethoxy)quinazoline-2,4(1H,3H)-dione], the “inhibitory rate (%)” value falls from 107% to 104%.

Going from Cc1cc2c(cc1N1Cc3c(Cl)cnc(-c4cnn(C)c4)c3NC1=O)OC(c1ncccc1F)CC2 (stereo not drawn) [Example 148, 5-chloro-3-(2-(3-fluoropyridin-2-yl)-6-methyl-3,4-dihydro-2H-chromen-7-yl)-8-(1-methyl-1H-pyrazol-4-yl)-3,4-dihydropyrido[3,4-d]pyrimidin-2(1H)-one] to CCOc1ncc(Cl)c2c1NC(=O)N(c1cc3c(cc1C)CCC(c1ncccc1F)O3)C2 (stereo not drawn) [Example 161, 5-chloro-8-ethoxy-3-(2-(3-fluoropyridin-2-yl)-6-methyl-3,4-dihydro-2H-chromen-7-yl)-3,4-dihydropyrido[3,4-d]pyrimidin-2(1H)-one], the “inhibitory rate (%)” value falls from 97% to 90%.

Compared with CCOC(=O)c1nccc2c1CN(c1cc3c(cc1Cl)CCC(c1ncccc1F)O3)C(=O)N2 (stereo not drawn) [Example 56, ethyl 3-(6-chloro-2-(3-fluoropyridin-2-yl)-3,4-dihydro-2H-chromen-7-yl)-2-oxo-1,2,3,4-tetrahydropyrido[4,3-d]pyrimidine-5-carboxylate], O=C1Nc2cncc(Cl)c2CN1c1cc2c(cc1Cl)CCC(c1ncccc1F)O2 (stereo not drawn) [Example 152, 5-chloro-3-(6-chloro-2-(3-fluoropyridin-2-yl)-3,4-dihydro-2H-chromen-7-yl)-3,4-dihydropyrido[3,4-d]pyrimidin-2(1H)-one] is lower in “inhibitory rate (%)” value: 110% for the first, 103% for the second.

Going from Cc1ccc(OCc2ncccc2F)cc1N1Cc2ccc(C(=O)NC(C)C)cc2NC1=O [Example 270, 3-(5-((3-fluoropyridin-2-yl)methoxy)-2-methylphenyl)-N-isopropyl-2-oxo-1,2,3,4-tetrahydroquinazoline-7-carboxamide] to Cc1ccc(OCc2ncccc2F)cc1N1Cc2c(cc[nH]c2=O)NC1=O [Example 310, 3-(5-((3-fluoropyridin-2-yl)methoxy)-2-methylphenyl)-4,6-dihydropyrido[4,3-d]pyrimidine-2,5(1H,3H)-dione], the “inhibitory rate (%)” value falls from 104% to 95%.

Going from CC(C)(O)c1ccc2c(c1)NC(=O)N(c1cc(OCc3c(F)cccc3F)ccc1Cl)C2 [Example 222, 3-(2-chloro-5-((2,6-difluorobenzyl)oxy)phenyl)-7-(2-hydroxypropan-2-yl)-3,4-dihydroquinazolin-2(1H)-one] to O=C1Nc2cc(CO)ccc2CN1c1cc(OCc2c(F)cccc2F)ccc1CC1CCCCC1 [Example 290, 3-(2-(cyclohexylmethyl)-5-((2,6-difluorobenzyl)oxy)phenyl)-7-(hydroxymethyl)-3,4-dihydroquinazolin-2(1H)-one], the “inhibitory rate (%)” value falls from 103% to 97%.

Going from Cc1cc2c(cc1N1Cc3c(F)cncc3NC1=O)OC(c1ncccc1F)CC2 (stereo not drawn) [Example 88, 5-fluoro-3-(2-(3-fluoropyridin-2-yl)-6-methyl-3,4-dihydro-2H-chromen-7-yl)-3,4-dihydropyrido[3,4-d]pyrimidin-2(1H)-one] to Cc1cc2c(cc1N1Cc3c(F)cnc(C4CC4)c3NC1=O)OC(c1ncccc1F)CC2 (stereo not drawn) [Example 168, 8-cyclopropyl-5-fluoro-3-(2-(3-fluoropyridin-2-yl)-6-methyl-3,4-dihydro-2H-chromen-7-yl)-3,4-dihydropyrido[3,4-d]pyrimidin-2(1H)-one], the “inhibitory rate (%)” value falls from 96% to 91%.

O=C1Nc2cn(CC3CC3)nc2CN1c1cc(OCc2ncccc2F)ccc1Br [Example 360, 6-(2-bromo-5-((3-fluoropyridin-2-yl)methoxy)phenyl)-2-(cyclopropylmethyl)-2,4,6,7-tetrahydro-5H-pyrazolo[4,3-d]pyrimidin-5-one] and O=C1Nc2ccccc2CN1c1cc(OCc2ncccc2F)ccc1F [Example 300, 3-(2-fluoro-5-((3-fluoropyridin-2-yl)methoxy)phenyl)-3,4-dihydroquinazolin-2(1H)-one] are the same in “inhibitory rate (%)” value: 105% for the first, 105% for the second.

Going from O=c1[nH]c2cccc(Cl)c2c(=O)n1-c1cc(OCc2ncccc2F)c(F)cc1Cl [Example 364, 5-chloro-3-(2-chloro-4-fluoro-5-((3-fluoropyridin-2-yl)methoxy)phenyl)quinazoline-2,4(1H,3H)-dione] to N#Cc1ccc(OCc2ncccc2F)cc1N1Cc2c(Cl)cccc2NC1=O [Example 278, 2-(5-chloro-2-oxo-1,4-dihydroquinazolin-3(2H)-yl)-4-((3-fluoropyridin-2-yl)methoxy)benzonitrile], the “inhibitory rate (%)” value falls from 108% to 96%.

Going from O=C1Nc2ccccc2CN1c1cc(OCc2ncccc2F)ccc1C(F)(F)F [Example 214, 3-(5-((3-fluoropyridin-2-yl)methoxy)-2-(trifluoromethyl)phenyl)-3,4-dihydroquinazolin-2(1H)-one] to Cc1cc2c(cc1N1Cc3ccc(C(=O)N4CCOCC4)cc3NC1=O)OC(c1ncccc1F)CC2 (stereo not drawn) [Example 183, 3-(2-(3-fluoropyridin-2-yl)-6-methyl-3,4-dihydro-2H-chromen-7-yl)-7-(morpholin-4-ylcarbonyl)-3,4-dihydroquinazolin-2(1H)-one], the “inhibitory rate (%)” value falls from 110% to 96%.
